Source: the NIST ThermoML archive (doi:10.1016/j.tca.2006.01.008)

Experiments:
[1] = refractive index (Na D-line) (dimensionless); details: 298.15 K; 101.33 kPa; Liquid; Standard Abbe refractometry
[2] = 298.15 K; 101.33 kPa; Liquid; Vibrating tube method
[3] = refractive index (Na D-line) (dimensionless); xn = mol fraction of the nth substance listed; details: 298.15 K, 101 kPa, Liquid, Standard Abbe refractometry
[4] = xn = mol fraction of the nth substance listed; details: 298.15 K, 101 kPa, Liquid, Vibrating tube method

CCCCCC [hexane]
Details	mass density [kg/m3]	refractive index
[1]	–	1.3724
[2]	655.1	–

CC(C)=O [acetone]
Details	mass density [kg/m3]	refractive index
[1]	–	1.356
[2]	784.9	–

CC(C)=O [acetone] + CCCCCC
Details	mass density, [4] [kg/m3]	refractive index, [3]
x1 = 0.0504	657.2	1.3709
x1 = 0.0994	659.7	1.3699
x1 = 0.1511	662.9	1.3688
x1 = 0.1999	666.3	1.3679
x1 = 0.2497	670.1	1.3668
x1 = 0.3006	674.4	1.366
x1 = 0.3518	679	1.3651
x1 = 0.4006	683.7	1.3643
x1 = 0.4476	688.7	1.3635
x1 = 0.4995	694.5	1.3627
x1 = 0.5498	700.7	1.3618
x1 = 0.5976	707	1.3611
x1 = 0.6479	714.1	1.3603
x1 = 0.697	721.7	1.3595
x1 = 0.7503	730.5	1.3587
x1 = 0.7998	739.4	1.358
x1 = 0.8499	749.1	1.3572
x1 = 0.8979	759.3	1.3568
x1 = 0.9507	771.7	1.3561

O [water]
Details	refractive index
[1]	1.3325

CC(C)=O [acetone] + O
Details	mass density, [4] [kg/m3]	refractive index, [3]
x1 = 0.0502	977	1.3422
x1 = 0.0993	959.3	1.3499
x1 = 0.1502	942.2	1.3549
x1 = 0.1996	926.6	1.3583
x1 = 0.2496	911.8	1.3604
x1 = 0.3007	897.6	1.3616
x1 = 0.3507	884.8	1.3621
x1 = 0.4003	873.1	1.3623
x1 = 0.4509	862.1	1.3621
x1 = 0.4992	852.5	1.3618
x1 = 0.5489	843.5	1.3614
x1 = 0.599	835	1.3609
x1 = 0.6506	827	1.3603
x1 = 0.6996	819.9	1.3602
x1 = 0.7014	819.6	1.3597
x1 = 0.7467	813.4	1.3591
x1 = 0.8011	806.2	1.3592
x1 = 0.8015	806.3	1.3583
x1 = 0.846	800.8	1.3577
x1 = 0.8969	794.9	1.3569
x1 = 0.9005	794.5	1.3572
x1 = 0.9451	789.9	1.3564
